# Test results reported in patent US10669235B2, “Indole derivatives and their use as protein kinase inhibitors” (RESPIVERT LIMITED, priority 2016, dated 2020).
# Structures can show the parent of a compound that is named as a salt. Where two headings read alike, the source gives them in different places.
# Key:
# [1] = tested on: MRC5 cells; test: Cell viability assay in MRC5 cells (MTT)
# [2] = Pharmacokinetic measurements in rats (i.v., i.t., oral); type: in vivo; details: rat; for MRT / clearance / half-life / Vd: plasma; for Vd: read-out: Vss; for concentration at 0.1 h: read-out: lung concentration (nM) at time 0.1 h; for concentration at 1.5 h: read-out: lung concentration (nM) at time 1.5 h; for concentration at 24 h: read-out: lung concentration (nM) at time 24 h
# [3] = PAMPA permeability assay; type: in vitro ADME; details: for recovery at 5 hr, 10 μM / Papp at 5 hr, 10 μM: pH 7, PAMPA; for Papp at 5 hr, 10 μM: pH 7, 10 μM
# [4] = molecular target: PDGFRβ (Homo sapiens (Human), UniProt P09619); test: PDGF-BB induced phosphorylation of PDGFRβ in fibroblasts (MRC5, HTRF); type: cell-based; details: MRC5 cells, PDGFBB stimulation; read-out: PDGFBB-induced PDGFRβ phosphorylation in MRC5 cells (IC50)
# [5] = i.t. dose 0.1 (nintedanib 0.42)
# [6] = i.t. dose 0.1 (nintedanib 0.42), 0.1 h
# [7] = i.t. dose 0.1 (nintedanib 0.42), 1.5 h
# [8] = i.t. dose 0.1 (nintedanib 0.42), 6 h
# [9] = i.t. dose 0.1 (nintedanib 0.42), 24 h
# [10] = i.v. dose 0.1 (nintedanib 0.42), 0.1 h
# [11] = i.v. dose 0.1 (nintedanib 0.42), 1.5 h
# [12] = i.v. dose 0.1 (nintedanib 0.42), 6 h
# [13] = i.v. dose 0.1 (nintedanib 0.42), 24 h
# [14] = male, CD, lung, other: intra-tracheal
# PDGFRβ, sequence (P09619 33-1106): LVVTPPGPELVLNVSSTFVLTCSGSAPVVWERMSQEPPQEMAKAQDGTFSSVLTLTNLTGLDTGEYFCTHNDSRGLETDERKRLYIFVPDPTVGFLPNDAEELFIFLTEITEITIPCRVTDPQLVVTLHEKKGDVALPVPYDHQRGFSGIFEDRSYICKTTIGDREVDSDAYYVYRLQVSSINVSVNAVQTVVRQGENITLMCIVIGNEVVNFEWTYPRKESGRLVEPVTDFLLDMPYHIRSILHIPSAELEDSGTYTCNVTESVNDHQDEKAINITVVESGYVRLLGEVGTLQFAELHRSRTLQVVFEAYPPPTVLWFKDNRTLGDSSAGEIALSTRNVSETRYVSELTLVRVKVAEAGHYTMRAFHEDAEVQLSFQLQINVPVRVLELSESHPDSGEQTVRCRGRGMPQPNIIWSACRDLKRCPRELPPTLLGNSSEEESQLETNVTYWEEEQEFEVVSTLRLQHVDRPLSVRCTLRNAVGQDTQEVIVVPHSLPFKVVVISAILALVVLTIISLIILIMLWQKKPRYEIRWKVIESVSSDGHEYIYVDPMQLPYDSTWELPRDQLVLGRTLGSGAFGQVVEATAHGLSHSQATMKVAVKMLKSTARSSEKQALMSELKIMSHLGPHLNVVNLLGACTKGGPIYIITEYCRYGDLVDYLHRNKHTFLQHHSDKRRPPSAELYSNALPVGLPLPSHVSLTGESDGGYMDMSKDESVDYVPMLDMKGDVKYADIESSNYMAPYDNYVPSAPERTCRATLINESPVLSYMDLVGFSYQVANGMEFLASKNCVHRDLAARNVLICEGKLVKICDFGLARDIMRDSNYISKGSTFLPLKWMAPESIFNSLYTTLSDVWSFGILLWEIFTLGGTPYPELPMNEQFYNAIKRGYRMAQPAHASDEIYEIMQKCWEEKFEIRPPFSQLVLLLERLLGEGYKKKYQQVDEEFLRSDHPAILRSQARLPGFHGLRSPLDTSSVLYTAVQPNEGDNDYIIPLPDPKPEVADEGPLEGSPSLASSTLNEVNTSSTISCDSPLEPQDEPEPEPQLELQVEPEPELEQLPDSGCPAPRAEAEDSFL
smiles,measurement,setting,value
"COC(=O)c1cc2c(cc1C)/C(=C(/Nc1ccc(C(=O)NCC(=O)N3CCN(CCO)CC3)cc1)c1ccccc1)C(=O)N2 [Example 7, (Z)-Methyl 3-(((4-((2-(4-(2-hydroxyethyl)piperazin-1-yl)-2-oxoethyl)carbamoyl)phenyl)amino) (phenyl)methylene)-5-methyl-2-oxoindoline-6-carboxylate, formate]",Cell viability at 100 nM (%),[1],102.9%
same,Cell viability at 300 nM (%),[1],97.2%
same,Cell viability at 1000 nM (%),[1],67.5%
same,MRT,"[2]; male, CD, iv",0.7 h
same,clearance,"[2]; male, CD, iv",75 mL/min/kg
same,half-life,"[2]; male, CD, iv",0.6 h
same,Vd,"[2]; male, CD, iv",3.4 L/kg
same,Lung conc i.t./i.v. Ratio at time 0.1 h,[2]; 0.1 h,15.5
same,Lung conc i.t./i.v. Ratio at time 1.5 h,[2]; 1.5 h,20.1
same,Lung conc i.t./i.v. Ratio at time 6 h,[2]; 6 h,>42
same,Lung conc i.t./i.v. Ratio at time 24 h,[2]; 24 h,>10
same,i.t. BAV (%),[2]; [5],35%
same,BAL % administered dose at time 0.1 h,[2]; [6],3.5%
same,lung/plasma conc ratio at time 0.1 h,[2]; [6],39
same,concentration at 0.1 h,[2]; [6],1532 nM
same,BAL % administered dose at time 1.5 h,[2]; [7],0.6%
same,lung/plasma conc ratio at time 1.5 h,[2]; [7],>265
same,concentration at 1.5 h,[2]; [7],886 nM
same,BAL % administered dose at time 6 h,[2]; [8],0.1%
same,lung/plasma conc ratio at time 6 h,[2]; [8],>35
same,concentration at 6 h,"[2]; i.t. dose 0.1 (nintedanib 0.42), 6 h, read-out: lung concentration (nM) at time 6 h",116 nM
same,BAL % administered dose at time 24 h,[2]; [9],BQL
same,lung/plasma conc ratio at time 24 h,[2]; [9],>8
same,concentration at 24 h,[2]; [9],27 nM
same,BAL % administered dose at time 0.1 h,[2]; [10],0.06%
same,lung/plasma ratio at time 0.1 h,[2]; [10],2
same,concentration at 0.1 h,[2]; [10],99 nM
same,BAL % administered dose at time 1.5 h,[2]; [11],BQL
same,lung/plasma ratio at time 1.5 h,[2]; [11],12
same,concentration at 1.5 h,[2]; [11],44 nM
same,BAL % administered dose at time 6 h,[2]; [12],BQL
same,lung concentration (nM) at time 6 h,[2]; [12],BQL
same,BAL % administered dose at time 24 h,[2]; [13],BQL
same,lung concentration (nM) at time 24 h,[2]; [13],BQL
same,Oral BAV (%),[2]; oral dose 3 mg/kg,<7%
same,"recovery at 5 hr, 10 μM",[3],56.3%
same,"Papp at 5 hr, 10 μM",[3],0.00653 ×10⁻⁶ cm/s
same,IC50,[4],6.04 nM
"COC(=O)c1ccc2c(c1)NC(=O)/C2=C(\Nc1ccc(N(C)C(=O)CN2CCN(C)CC2)cc1)c1ccccc1 [Nintedanib, reference compound]",Cell viability at 100 nM (%),[1],104.6%
same,Cell viability at 300 nM (%),[1],105.6%
same,Cell viability at 1000 nM (%),[1],92.7%
same,concentration at 0.1 h,"[2]; male, CD, lung, iv",2300 nM
same,concentration at 1.5 h,"[2]; male, CD, lung, iv",1390 nM
same,concentration at 24 h,"[2]; male, CD, lung, iv",66 nM
same,concentration at 0.1 h,[2]; [14],12400 nM
same,concentration at 1.5 h,[2]; [14],7700 nM
same,concentration at 24 h,[2]; [14],152 nM
same,MRT,"[2]; male, CD, iv",3.8 h
same,clearance,"[2]; male, CD, iv",124 mL/min/kg
same,half-life,"[2]; male, CD, iv",3.9 h
same,Vd,"[2]; male, CD, iv",28 L/kg
same,i.t. BAV (%),[2]; [5],43%
same,BAL % administered dose at time 0.1 h,[2]; [6],2%
same,BAL % administered dose at time 1.5 h,[2]; [7],1%
same,BAL % administered dose at time 24 h,[2]; [9],0.1%
same,BAL % administered dose at time 0.1 h,[2]; [10],0.06%
same,BAL % administered dose at time 1.5 h,[2]; [11],0.03%
same,BAL % administered dose at time 24 h,[2]; [13],BQL
same,% Recovery,[3],64.0%
same,"recovery at 5 hr, 10 μM",[3],83.5%
"COC(=O)c1cc2c(cc1C)/C(=C(/Nc1ccc(C(=O)NCC3CCN(CCO)CC3)cc1)c1ccccc1)C(=O)N2 [Example 50, (Z)-Methyl 3-(((4-(((1-(2-hydroxyethyl)piperidin-4-yl)methyl)carbamoyl)phenyl)amino)(phenyl)methylene)-5-methyl-2-oxoindoline-6-carboxylate]",Cell viability at 100 nM (%),[1],116.2%
same,Cell viability at 300 nM (%),[1],107.9%
same,Cell viability at 1000 nM (%),[1],61.0%
"COC(=O)c1cc2c(cc1C)/C(=C(/Nc1ccc(C(=O)NCCN3CCC(O)CC3)cc1)c1ccccc1)C(=O)N2 [Example 12, (Z)-Methyl 3-(((4-((2-(4-hydroxypiperidin-1-yl)ethyl)carbamoyl)phenyl)amino)(phenyl)methylene)-5-methyl-2-oxoindoline-6-carboxylate, 0.8 formate]",Cell viability at 100 nM (%),[1],92.2%
same,Cell viability at 300 nM (%),[1],105.5%
same,Cell viability at 1000 nM (%),[1],93.4%
same,"recovery at 5 hr, 10 μM",[3],87.7%
same,"Papp at 5 hr, 10 μM",[3],0.00638 ×10⁻⁶ cm/s
same,IC50,[4],4.23 nM
"COC(=O)c1cc2c(cc1C)/C(=C(/Nc1ccc(C(=O)NCC(=O)N3CCN(C)CC3)cc1)c1ccccc1)C(=O)N2 [Example 8, (Z)-Methyl 5-methyl-3-(((4-((2-(4-methylpiperazin-1-yl)-2-oxoethyl)carbamoyl)phenyl)amino) (phenyl)methylene)-2-oxoindoline-6-carboxylate, 0.5 formate]",Cell viability at 100 nM (%),[1],110.4%
same,Cell viability at 300 nM (%),[1],108.2%
same,Cell viability at 1000 nM (%),[1],77.7%
same,"recovery at 5 hr, 10 μM",[3],87.8%
same,"Papp at 5 hr, 10 μM",[3],0.156 ×10⁻⁶ cm/s
same,IC50,[4],12 nM
"COC(=O)c1cc2c(cc1C)/C(=C(/Nc1ccc(C(=O)N3CCN(CC(=O)NCCO)CC3)cc1)c1ccccc1)C(=O)N2 [Example 15, (Z)-Methyl 3-(((4-(4-(2-((2-hydroxyethyl)amino)-2-oxoethyl)piperazine-1-carbonyl)phenyl)amino) (phenyl)methylene)-5-methyl-2-oxoindoline-6-carboxylate]",Cell viability at 100 nM (%),[1],91.3%
same,Cell viability at 300 nM (%),[1],109.9%
same,Cell viability at 1000 nM (%),[1],85.6%
"COC(=O)c1cc2c(cc1C)/C(=C(/Nc1ccc(S(=O)(=O)NCCN3CCN(C)CC3)cc1)c1ccccc1)C(=O)N2 [Example 1, (Z)-Methyl 5-methyl-3-(((4-(N-(2-(4-methylpiperazin-1-yl)ethyl)sulfamoyl)phenyl)amino)(phenyl)methylene)-2-oxoindoline-6-carboxylate, 0.8 formate]",Cell viability at 100 nM (%),[1],103.6%
same,Cell viability at 300 nM (%),[1],89%
same,Cell viability at 1000 nM (%),[1],68.7%
same,"recovery at 5 hr, 10 μM",[3],92%
same,"Papp at 5 hr, 10 μM",[3],0.123 ×10⁻⁶ cm/s
same,IC50,[4],25.6 nM
"COC(=O)c1cc2c(cc1C)/C(=C(/Nc1ccc(C(=O)NCCN3CCS(=O)(=O)CC3)cc1)c1ccccc1)C(=O)N2 [Example 52, (Z)-Methyl 3-(((4-((2-(1,1-dioxidothiomorpholino)ethyl)carbamoyl)phenyl)amino)(phenyl)methylene)-5-methyl-2-oxoindoline-6-carboxylate]",Cell viability at 100 nM (%),[1],81.3%
same,Cell viability at 300 nM (%),[1],81.2%
same,Cell viability at 1000 nM (%),[1],85.9%
same,IC50,[4],5.49 nM
"COC(=O)c1cc2c(cc1C)/C(=C(/Nc1ccc(C(=O)NCC3CCN(CCO)CC3)cc1)c1ccccc1)C(=O)N2 [Example 14, (Z)-Methyl 3-(((4-(((1-(2-hydroxyethyl)piperidin-4-yl)methyl)carbamoyl)phenyl)amino) (phenyl)methylene)-5-methyl-2-oxoindoline-6-carboxylate]",Cell viability at 100 nM (%),[1],116.2%
same,Cell viability at 300 nM (%),[1],107.9%
same,Cell viability at 1000 nM (%),[1],61%
"COC(=O)c1cc2c(cc1C)/C(=C(/Nc1ccc(C(=O)NC3CCN(CCO)CC3)cc1)c1ccccc1)C(=O)N2 [Example 49, (Z)-Methyl 3-(((4-((1-(2-hydroxyethyl)piperidin-4-yl)carbamoyl)phenyl)amino)(phenyl)methylene)-5-methyl-2-oxoindoline-6-carboxylate]",IC50,[4],1.25 nM
"COC(=O)c1cc2c(cc1C)/C(=C(/Nc1ccc(C(=O)NCCN(C)CCO)cc1)c1ccccc1)C(=O)N2 [Example 51, (Z)-Methyl 3-(((4-((2-((2-hydroxyethyl)(methyl)amino)ethyl)carbamoyl)phenyl)amino)(phenyl)methylene)-5-methyl-2-oxoindoline-6-carboxylate]",Cell viability at 100 nM (%),[1],113%
same,Cell viability at 300 nM (%),[1],95.5%
same,Cell viability at 1000 nM (%),[1],83.8%
same,IC50,[4],6.71 nM
"COC(=O)c1cc2c(cc1C)/C(=C(/Nc1ccc(C(=O)NCCN3CCNC(=O)CC3)cc1)c1ccccc1)C(=O)N2 [Example 53, (Z)-Methyl 5-methyl-2-oxo-3-(((4-((2-(5-oxo-1,4-diazepan-1-yl)ethyl)carbamoyl)phenyl)amino)(phenyl)methylene)indoline-6-carboxylate]",Cell viability at 100 nM (%),[1],89.1%
same,Cell viability at 300 nM (%),[1],92.9%
same,Cell viability at 1000 nM (%),[1],95.3%
same,IC50,[4],6.5 nM
